# Assay results reported in US9062095B2, “Mutant double cyclized receptor peptides inhibiting β1-adrenoceptor antibodies” (JULIUS-MAXIMILIANS-UNIVERSTITAT-WURZBURG, priority 2007, dated 2015).
# Positions of bridges follow the written chain, without caps; N, C: chain ends.
# Experiments:
# [1] = system: anti-beta1-receptor antibody-titers; test: in vivo therapy study in long term immunized cardiomyopathic rats: antibody-titers by ELISA; parameters: species or system rat; conditions: for in vivo blocking capacity after the first i.v. injection: sera 18-20 hours after injection (FIGS. 14 and 15)
# Protocol: FIG. 16A is a diagram resuming the in vivo blocking effect of both 25AA and 18AA cyclopeptide mutants with a Gln closure site, determined after a total of nine intravenous (i.v.) in-jections of 1.0 mg/kg body weight (Bw) of the indicated peptides into immunized antibody-positive rats. Sera were drawn before and 18-20 hours after i.v. injection of the various peptides every 4 weeks (abscissa: time in months of treatment) and assayed for reactivity by ELISA using the 3 Cys-containing linear 25AA Cys/Cys-peptide as an antigen.
# FIG. 16B is a diagram resuming the in vivo blocking effect of various concentrations of 18AA cyclopeptide mutants with a Gln closure site, determined after a total of nine intra-venous (i.v.) injections of 0.25, 1.0, 2.0, and 4.0 mg/kg body weight (Bw) into immunized antibody-positive rats, irrespective of the cyclopeptide “responder-state” of individual animals. Sera were drawn before and 18-20 hours after i.v. injection of the various peptides every 4 weeks (abscissa: time in months), and assayed for reactivity by ELISA using the 3 Cys-containing linear 25AA Cys/Cys-peptide as an antigen.
# Sera were drawn as described above and assayed for reactivity by ELISA using the 3 Cys-containing linear 25AA Cys/Cys-peptide as an antigen.
# Moreover, the in vivo blocking effects of therapeutically used 25AA and 18AA Cys/Ser cyclo-peptide mutants, the 18AA Ser/Cys mutant (Gln-)cyclopeptide, and a mutated linear 18AA Cys/Ser peptide were assessed after a first intravenous (i.v.) dose (i.e., 1.0 mg/kg body weight (Bw)) of each construct injected into long term immunized anti-beta1-ECII antibody-positive rats, yet presenting a cardiomyopathic phenotype (after nine months of 1× monthly immunization with the beta1-ECII/GST antigen; FIGS. 14-16 and 17). Sera were drawn 18-20 hours after the first i.v. injection of the various constructions and assayed for reactivity by ELISA using the 3 Cys-containing linear 25AA Cys/Cys-peptide as an antigen.
# The latter doses were almost equally efficient in terms of both, neutralization of circulating receptor antibodies (FIGS. 16b and c), and reversal of antibody-induced cardiomyopathic features (FIGS. 17b, 19b, 20, and 21b).
# In order to generate anti-β1-receptor antibodies the animals were immunized with a fusion protein containing bacterial glutathione-S-transferase and the sequence of the second extra-cellular loop of the human β1-adrenergic receptor (GST/β1-ECII). Before treatment of the animals with mutated cyclopeptides according to the present invention, progressive dilated immune cardiomyopathy is observed after 6 to 8 months of regular immunization every four weeks (FIG. 17). All of the immunized animals developed high titers of stimulatory anti-β1-ECII antibodies. The specific anti-β1-ECII titer reached a maximum between 6 and 8 months of continuously boosting the animals every 4 weeks, whereas NaCl-injected control animals developed no specific receptor antibodies (FIG. 18).
# Such immunized animals were used for the application of mutant cyclopeptides according to the present invention. The in-vivo blocking effect of both 25AA and 18AA Cys/Ser mutant cyclopeptides (with a Gln closure site) were determined after a first intravenous (i.v.) injection of 1.0 mg/kg body weight (Bw) (for 18AA Cys/Ser cyclopeptides also 0.25 mg/kg/Bw) into immunized antibody-positive rats. Sera were drawn 18-20 hours after i.v. injection of the different peptides and assayed for reactivity by ELISA using the 3 Cys-containing linear 25AA Cys/Cys-peptide as an antigen.
# anti-β1-ECII antibodies = test: ELISA-competition assay: peptide preincubated with sera/IgG of immunized antibody-positive rats, linear 25AA Cys/Cys-peptide as antigen; type: binding, rat; conditions: for decrease in circulating free anti-beta1-ECII antibodies: n=6 sera (FIG. 11)
# Summary of the method: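 Rat sera or IgG fractions from immunized anti-β1-ECII antibody-positive rats preincubated 12 h at 4° C (rotating) with linear or cyclic β1-ECII peptides at fold molar excess (1:1 peptide:IgG assumed). Residual binding measured by ELISA on linear 25AA Cys/Cys-peptide antigen, given as % blocked versus non-blocked reactivity.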
substance,measurement,setting,value
"Cyclo-Ala-Asp-Glu-Ala-Arg-Arg-Cys-Tyr-Asn-Asp-Pro-Lys-Cys-Ser-Asp-Phe-Val-Gln (cyclo(ADEARRCYNDPKCSDFVQ); disulfide 7-13; SMILES CC(C)[C@@H]1NC(=O)[C@H](Cc2ccccc2)NC(=O)[C@H](CC(=O)O)NC(=O)[C@H](CO)NC(=O)[C@@H]2CSSC[C@H](NC(=O)[C@H](CCCNC(=N)N)NC(=O)[C@H](CCCNC(=N)N)NC(=O)[C@H](C)NC(=O)[C@H](CCC(=O)O)NC(=O)[C@H](CC(=O)O)NC(=O)[C@H](C)NC(=O)[C@H](CCC(N)=O)NC1=O)C(=O)N[C@@H](Cc1ccc(O)cc1)C(=O)N[C@@H](CC(N)=O)C(=O)N[C@@H](CC(=O)O)C(=O)N1CCC[C@H]1C(=O)N[C@@H](CCCCN)C(=O)N2) [18AA Cys/Ser mutant (Gln-)cyclopeptide, disulphide bond Cys7-Cys13, ring closure Ala1-Gln18]",number of responders (after 7 injections remaining antibody level equal or inferior to 80% of titer at start of therapy),[1]; 0.25 mg/kg Bw (FIG. 16C),3/4
same,achieved decrease in circulating receptor-antibodies compared with 1.0 or 2.0 mg/kg,"[1]; 0.25 mg/kg Bw, repeated injections every 4 weeks",clearly less efficient
same,in vivo blocking capacity after the first i.v. injection,[1]; 0.25 mg/kg body weight,no relevant decrease in receptor-antibodies
same,number of responders (after 7 injections remaining antibody level equal or inferior to 80% of titer at start of therapy),[1]; 1.0 mg/kg Bw (FIG. 16C),16/20
same,initial transient increase in antibody-titers,[1]; 1.0 mg/kg Bw (FIGS. 16a and b),did not occur
same,in vivo blocking capacity after the first i.v. injection,"[1]; 1 mg/kg Bw, listed as 18AA Cys/Ser cyclopeptide mutant",largely superior to that of the linear 18AA Cys/Ser peptide mutant
same,in vivo blocking capacity after the first i.v. injection,"[1]; 1 mg/kg Bw, listed as 18AA Cys/Ser cyclopeptide mutants",higher in vivo blocking capacity
same,"absolute decrease in antibody-titers after 9 months of treatment, of the titer at start of therapy",[1]; 1.0 mg/kg i.v. every 4 weeks,−59±14%
same,initial transient increase in antibody-titers,[1]; 2.0 mg/kg Bw,did not occur
same,number of responders (after 7 injections remaining antibody level equal or inferior to 80% of titer at start of therapy),[1]; 2.0 mg/kg Bw (FIG. 16C),2/5
same,"absolute decrease in antibody-titers after 9 months of treatment, of the titer at start of therapy",[1]; 2.0 mg/kg i.v. every 4 weeks,−59±12%
same,number of responders (after 7 injections remaining antibody level equal or inferior to 80% of titer at start of therapy),[1]; 4.0 mg/kg Bw (FIG. 16C),6/9
same,initial transient increase in antibody-titers,[1]; 4.0 mg/kg Bw (high dose),transient increase in antibody-titers
same,antibody scavenging capacity compared with 1.0 or 2.0 mg/kg,"[1]; 4.0 mg/kg body weight, repeated injections every 4 weeks",did not result in higher efficiency
same,"absolute decrease in antibody-titers after 9 months of treatment, of the titer at start of therapy",[1]; 4.0 mg/kg i.v. every 4 weeks,−39±14%
same,decrease in circulating free anti-beta1-ECII antibodies,anti-β1-ECII antibodies; 8-fold molar excess of peptide,53%
same,decrease in circulating free anti-beta1-ECII antibodies,anti-β1-ECII antibodies; 20-fold molar excess of peptide,66%
same,decrease in circulating free anti-beta1-ECII antibodies,anti-β1-ECII antibodies; 80-fold molar excess of peptide,about 85%
same,blocking-efficiency versus unblocked sera,"anti-β1-ECII antibodies; n=6 sera, incubation 12-14 h, 4° C., mean ±SEM (FIG. 27)",60.0±8.3%
same,fraction of rat sera blocked by the peptide,"anti-β1-ECII antibodies; n=69 sera, (Gln-)cyclopeptide mutants (FIG. 10), Cys/Ser = blocked by it alone (n=64), Ser/Cys = sera blocked by both (n=5)",About 93%
same,blocking efficiency (% of blocked versus non-blocked ELISA reactivity),"anti-β1-ECII antibodies; type1 sera (93%, n=64 of 69), FIG. 9 upper panel, ±SEM",68±3%
same,blocking capacity (% of blocked versus non-blocked ELISA reactivity),"anti-β1-ECII antibodies; type 2 sera (7%, n=5 of 69), FIG. 9 lower panel, ±SEM",50±8%
